CC50 data for four molecules are collected here from patent US9926269B2, “Beta-lactam cholesterol absorption inhibitors” (Rudjer Boskovic Institute, priority 2013, dated 2018).

Some results are limits rather than exact numbers.

What all share (format): cell-based
The nature of data set [1]: Cytotoxicity assay (MTT cell proliferation assay), hNPC1L1/MDCKII cells. As to conditions: dog, MDCKII cells stably expressing human NPC1L1 (hNPC1L1/MDCKII), 72 h incubation, read-out: hNPC1L1MDCKII LC50. The protocol: (§1) The cells were grown at 37° C. in a humidified 5% CO2 incubator. Stable transfection of MDCKII cells with human NPC1L1 protein was performed using the Lipofectamine LTX (Invitrogen, USA) according to the manufecturer's protocol. Selection with 1000 μg/mL G418 (Sigma-Aldrich, Germany) was started 2 days after transfection. The concentration of G418 was decreased to 500 μg/mL after 14 days. Transfected cells were maintained in DMEM (Dulbecco's Modified Eagle Medium) containing 100 units/mL penicillin and 100 μg/mL streptomycin supplemented with 10% FCS and 500 μg/mL G418.
(§2) For the cytotoxicity determination, MDCKII, hNPC1L1/MDCKII and HepG2 cells were seeded in 96-well microtiter plates on day 0 at the density of 3000 cells/well. […] The compound cytotoxicity was assessed on day 4 performing the MTT cell proliferation assay (Sigma-Aldrich, Germany) which detects mitochondrial dehydrogenase activity in viable cells. (Mosmann, T. J. Immunol. Methods 1983, 65, 55.) The results are expressed as LC50 and the values for each compound were calculated from dose-response curves using linear regression analysis. Each concentration was tested in quadruplicate in three independent experiments (Table 1).

Data set [2] in a line: Cytotoxicity assay (MTT cell proliferation assay), HepG2 cells. As to conditions: human, 72 h incubation, read-out: HepG2 LC50. The procedure: as §1, §2
Data set [3] is described as follows: Cytotoxicity assay (MTT cell proliferation assay), MDCKII cells. As to conditions: dog, 72 h incubation, read-out: MDCKII LC50. The procedure: as §1, §2
Data set [4] has as its system MDCKII cells stably expressing human NPC1L1 (hNPC1L1/MDCKII). As to the kind of experiment: Cytotoxicity assay (MTT cell proliferation assay), hNPC1L1/MDCKII cells. As to conditions: 72 h incubation, read-out: hNPC1L1MDCKII LC50. The protocol:
as §1, §2

Take `O=C1[C@H](NCC(O)c2ccc(F)cc2)[C@@H](c2ccc(O)cc2)N1c1ccc(F)cc1` (mixture of isomers) [8/9-70/30, (3R,4R)-3-[(2R/S)-2-(4-fluorophenyl)-2-hydroxyethylamino]-1-(4-fluorophenyl)-4-(4-hydroxyphenyl)azetidin-2-one]: the CC50 at 72 h in data set [1], in data set [2] and in data set [3] was over 100 µM in each case.

Consider `O=C(/C=C/c1ccc(F)cc1)N[C@H]1C(=O)N(c2ccc(F)cc2)[C@@H]1c1ccc(O)cc1` [Compound 3, (E)-1-[(3R,4R)-1-(4-fluorophenyl)-4-(4-hydroxyphenyl)-2-oxo-3-azetidinylamino]-3-(4-fluorophenyl)-2-propen-1-one], for which the CC50 in data set [4] amounted to 63.3 µM.

In the case of `O=C1[C@H](NC[C@H](O)c2ccc(F)cc2)[C@@H](c2ccc(O)cc2)N1c1ccc(F)cc1` [Compound 8, (3R,4R)-3-[(2R)-2-(4-fluorophenyl)-2-hydroxyethylamino]-1-(4-fluorophenyl)-4-(4-hydroxyphenyl)azetidin-2-one], the CC50 at 72 h in data set [1], in data set [2] and in data set [3] was over 100 µM in each case.

Take `O=C1[C@H](NC[C@@H](O)c2ccc(F)cc2)[C@@H](c2ccc(O)cc2)N1c1ccc(F)cc1` [Compound 9, (3R,4R)-3-[(2S)-2-(4-fluorophenyl)-2-hydroxyethylamino]-1-(4-fluorophenyl)-4-(4-hydroxyphenyl)azetidin-2-one]: the CC50 at 72 h in data set [1], in data set [2] and in data set [3] was over 100 µM in each case.
